From PMC1892040 (PLoS Medicine, 2007)
Where two headings read alike, the source gives them in different places.

Columns and labels:
schistosomula = assay: Schistosomula survival after RNAi and/or drug treatment; type: cell-based, Schistosoma mansoni; details: 2 μM praziquantel
Protocol: Cercariae were mechanically transformed to schistosomula by vortexing, and bodies were separated from tails by Percoll gradient centrifugation as described [13]. Immediately after transformation, TGR dsRNA or irrelevant dsRNA (each at 54 μg/ml) was added to ~500 schistosomula in 50 μl water followed by incubation at 37 °C for 30 min. After addition of 250 μl of RPMI-1640 medium, 300 U/ml penicillin, and 175 μg/ml streptomycin, parasites were incubated at 37 °C in 5% CO2 atmosphere for 4 d. Reduced O2 tension was obtained by filtering media and purging with 95% N2, 5% CO2 for 20 min before use. Parasites were cultured during the course of the experiment in the appropriate gaseous mix at 37 °C in a sealed modular incubator chamber (Billups-Rothenberg, http://www.brincubator.com) flushed with the same gaseous mix. On day 2 of the experiment, 50 μl of fresh media was added. Schistosomula were assessed daily for viability by microscopy. For each time point at least 1,500 parasites were scored as alive or dead in each experiment (three replicates of 500 each), and each experiment was repeated three times.
(B) Parasites were cultured in the presence of double-stranded TGR RNA (dashed lines) or of double-stranded irrelevant RNA (solid lines) in 20% O2 (♦) or 0% O2 (). […] (C) Combination of RNAi and drug treatments. Solid lines are irrelevant dsRNA treatments and dashed lines are dsTGR treatments; no additions (♦), 2 μM praziquantel () and 2 μM AF (▴). […] In each experiment for each time point at least 1,500 parasites were scored as alive or dead (three replicates of 500 parasites). The error bars represent the standard deviations of three independent experiments.

S. mansoni TGR [1] = target: T1, S. mansoni TGR (Schistosoma mansoni, UniProt Q962Y6)
T1 sequence (Q962Y6 1-598): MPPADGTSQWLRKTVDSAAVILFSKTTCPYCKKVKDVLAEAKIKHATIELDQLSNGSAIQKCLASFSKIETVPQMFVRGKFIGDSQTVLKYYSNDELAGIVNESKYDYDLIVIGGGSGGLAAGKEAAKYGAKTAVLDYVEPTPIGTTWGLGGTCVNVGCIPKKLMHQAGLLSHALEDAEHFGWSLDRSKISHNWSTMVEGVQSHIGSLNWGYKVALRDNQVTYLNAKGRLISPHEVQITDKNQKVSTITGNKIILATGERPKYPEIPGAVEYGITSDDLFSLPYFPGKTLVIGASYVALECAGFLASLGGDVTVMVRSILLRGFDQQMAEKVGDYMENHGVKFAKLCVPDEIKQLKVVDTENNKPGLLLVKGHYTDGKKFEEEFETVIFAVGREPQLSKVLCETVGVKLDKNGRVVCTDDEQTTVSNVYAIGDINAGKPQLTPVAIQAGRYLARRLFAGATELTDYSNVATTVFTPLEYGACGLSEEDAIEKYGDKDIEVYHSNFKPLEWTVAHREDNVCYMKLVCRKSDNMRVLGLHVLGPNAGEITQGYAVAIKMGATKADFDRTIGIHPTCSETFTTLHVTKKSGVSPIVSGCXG
Protocol: (§1) Assays were performed at 25 °C in 0.1 M potassium phosphate (pH 7.4), 10 mM EDTA using 100 μM NADPH unless otherwise stated.
(§2) Initial inhibitor screens were conducted in 200 μl volumes in 96 well plates with 50 μM inhibitor, 100 μM NADPH, and 5 nM TGR in 0.1 M potassium phosphate (pH 7.4), 10 mM EDTA with a preincubation step of 15 min. […] All assays were done in triplicate.

S. mansoni TGR [2] = target: T1, S. mansoni TGR; assay: biochemical; details: read-out: Activity of Enzyme (% of Uninhibited Enzyme)
Protocol: as §1, §2

S. mansoni TGR [3] = target: T1, S. mansoni TGR; assay: Kinetic analysis of recombinant S. mansoni TGR with substrates; details: for Specific activity, S. mansoni TGR: NADPH + substrate; for Specific activity of recombinant TGR with substrate: Trx coupled to insulin reduction, HED in Grx assay
Protocol: Kinetic parameters were determined using Lineweaver–Burk plots using KaleidaGraph 4 (Synergy Software, http://www.synergy.com) least squares best fit of data and varying concentrations of one substrate while maintaining the concentration of other substrates. […] All assays were done in triplicate.

Human TrxR1 = details: cited from earlier work; for Specific activity, Human TrxR1: NADPH + substrate, ND, no activity detected; for Km: read-out: Apparent Km, Human TrxR1
Human TGR = details: cited from earlier work; for Specific activity, Human TGR: NADPH + substrate; for Km: read-out: Apparent Km, Human TGR
Human GR = target: T2, Human GR (Homo sapiens, UniProt P00390); details: read-out: IC50 Human GR, GSSG; cited from earlier work
T2 sequence (P00390 44-522): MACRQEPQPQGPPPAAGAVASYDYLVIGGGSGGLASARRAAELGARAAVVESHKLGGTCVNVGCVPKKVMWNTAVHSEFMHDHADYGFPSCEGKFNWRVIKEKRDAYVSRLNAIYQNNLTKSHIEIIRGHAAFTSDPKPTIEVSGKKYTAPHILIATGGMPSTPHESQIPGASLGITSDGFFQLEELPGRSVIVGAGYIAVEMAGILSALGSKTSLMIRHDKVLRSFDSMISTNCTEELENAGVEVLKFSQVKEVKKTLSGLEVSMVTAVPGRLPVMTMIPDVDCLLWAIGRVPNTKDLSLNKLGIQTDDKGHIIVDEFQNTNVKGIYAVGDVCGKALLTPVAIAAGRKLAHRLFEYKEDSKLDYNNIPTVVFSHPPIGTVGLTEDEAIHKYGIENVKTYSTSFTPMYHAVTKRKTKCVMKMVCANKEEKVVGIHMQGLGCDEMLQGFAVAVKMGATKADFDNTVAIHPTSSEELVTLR

Human TrxR = target: T3, Human TrxR (Homo sapiens, UniProt Q16881); details: read-out: IC50 Human TrxR, DTNB/Trx; cited from earlier work
T3 sequence (Q16881 1-499 isoform Q16881-5): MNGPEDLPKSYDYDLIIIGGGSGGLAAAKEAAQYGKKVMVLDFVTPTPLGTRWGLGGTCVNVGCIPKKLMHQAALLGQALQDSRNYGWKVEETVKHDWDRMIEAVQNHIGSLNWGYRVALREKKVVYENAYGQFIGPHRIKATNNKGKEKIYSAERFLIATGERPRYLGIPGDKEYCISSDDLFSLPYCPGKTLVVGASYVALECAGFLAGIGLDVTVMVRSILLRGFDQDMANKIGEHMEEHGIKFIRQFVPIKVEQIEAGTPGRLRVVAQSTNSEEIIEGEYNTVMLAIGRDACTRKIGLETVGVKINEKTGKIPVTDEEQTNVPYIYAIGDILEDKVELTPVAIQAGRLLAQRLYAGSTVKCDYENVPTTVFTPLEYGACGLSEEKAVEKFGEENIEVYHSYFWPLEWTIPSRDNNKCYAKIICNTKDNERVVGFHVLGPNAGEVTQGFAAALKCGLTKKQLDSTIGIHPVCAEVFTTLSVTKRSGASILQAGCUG

S. mansoni TGR [4] = target: T1, S. mansoni TGR; type: biochemical; design: The entire TGR ORF plus the SECIS element was subcloned into pET-24a; made in house; host or cells: Escherichia coli BL21(DE3) with pSUABC; details: read-out: IC50 S. mansoni TGR, DTNB (TrxR activity)
Protocol: as §1, §2

S. mansoni TGR [5] = target: T1, S. mansoni TGR; type: biochemical; design: The entire TGR ORF plus the SECIS element was subcloned into pET-24a; made in house; host or cells: Escherichia coli BL21(DE3) with pSUABC; details: read-out: IC50 S. mansoni TGR, GSSG (GR activity)
Protocol: as §1, §2

S. mansoni TGR [6] = target: T1, S. mansoni TGR; assay: IC50, Grx activity of TGR (HED assay), 15 min preincubation; type: biochemical; design: The entire TGR ORF plus the SECIS element was subcloned into pET-24a; made in house; host or cells: Escherichia coli BL21(DE3) with pSUABC; details: 8 mM HED plus 1 mM GSH, 15 min preincubation with 100 μM NADPH
Protocol: as §1, §2

[7] = substrate of TGR (20 nM), 25 °C, pH 7.4, 100 μM NADPH
[8] = substrate of TGR (20 nM), 25 °C, pH 7.4, 100 μM NADPH, ± SD
[9] = 3 mM DTNB, 15 min preincubation with 100 μM NADPH
[10] = 100 μM GSSG, 15 min preincubation with 100 μM NADPH
[11] = read-out: Apparent Km, S. mansoni TGR

O=C(C1CCCCC1)N1CC(=O)N2CCc3ccccc3C2C1 (stereo not drawn) [Praziquantel]
Effect on schistosomula survival alone or in combination with RNAi (schistosomula): no effect
Inhibition of TGR, in words (S. mansoni TGR [1]): no inhibitory activity
activity at 50 µM (S. mansoni TGR [2]): 100%

O=C(O)c1cc(SSc2ccc([N+](=O)[O-])c(C(=O)O)c2)ccc1[N+](=O)[O-] [DTNB, 5,5′-dithiobis(2-nitrobenzoic acid)]
Specific activity, S. mansoni TGR (S. mansoni TGR [3]): 10.2 µmol/min/mg
Specific activity of recombinant TGR with substrate (S. mansoni TGR [3]): 10.2 U/mg
kcat (S. mansoni TGR [3]; [7]): 16 s⁻¹
Km (S. mansoni TGR [3]; [8]): 114 ± 9 µM
Vmax (S. mansoni TGR [3]; [8]): 19.2 ± 1.6 µM/min
Specific activity, Human TrxR1 (Human TrxR1): 25 µmol/min/mg
Apparent kcat, Human TrxR1 (Human TrxR1): 86 s⁻¹
Km (Human TrxR1): 212 µM
Specific activity, Human TGR (Human TGR): 3.1 µmol/min/mg
Apparent kcat, Human TGR (Human TGR): 6.5 s⁻¹
Km (Human TGR): 14.7 µM

Cc1cc2nc3cc(C)c(N)cc3[n+](-c3ccccc3)c2cc1N [Safranin]
activity (S. mansoni TGR [1]): 75%

COC1=C(OC)C(=O)C(C/C=C(\C)CC/C=C(\C)CC/C=C(\C)CC/C=C(\C)CC/C=C(\C)CC/C=C(\C)CC/C=C(\C)CC/C=C(\C)CC/C=C(\C)CCC=C(C)C)=C(C)C1=O [Ubiquinone]
kcat (S. mansoni TGR [3]; [7]): <0.25 s⁻¹
Vmax (S. mansoni TGR [3]; [8]): <0.3 µM/min

O=C1OC(C(O)CO)C(=O)C1=O (stereo not drawn) [DHAA, dehydroascorbic acid]
kcat (S. mansoni TGR [3]; [7]): <0.25 s⁻¹
Vmax (S. mansoni TGR [3]; [8]): <0.3 µM/min

O=C(O)CCCC[C@@H]1CCSS1 (racemic) [Lipoic acid]
kcat (S. mansoni TGR [3]; [7]): 1.7 s⁻¹
Km (S. mansoni TGR [3]; [8]): 2610 µM
Vmax (S. mansoni TGR [3]; [8]): 2.03 ± 0.135 µM/min

OO [Compound H2O2, H2O2]
kcat (S. mansoni TGR [3]; [7]): 9.4 s⁻¹
Km (S. mansoni TGR [3]; [8]): 68000 µM
Vmax (S. mansoni TGR [3]; [8]): 11.3 ± 0.46 µM/min

OC[C@H]1O[C@H]([S-])[C@H](O)[C@@H](O)[C@@H]1O.[Au+] [Aurothioglucose]
Activity of Enzyme (% of Uninhibited Enzyme) (S. mansoni TGR [1]): 0%
IC50 (Human GR): > 100000 nM
IC50 (Human TrxR): 65 nM
IC50 (S. mansoni TGR [4]): 70 nM
IC50 (S. mansoni TGR [5]): 3000 nM
IC50 (S. mansoni TGR [6]): 400 nM

O=C(O)CC([S-])C(=O)O.[Au+] (stereo not drawn) [Aurothiomalate]
activity (S. mansoni TGR [1]): 0%
IC50 (Human TrxR): 280 nM
IC50 (S. mansoni TGR [4]; [9]): 90 nM
IC50 (S. mansoni TGR [5]; [10]): 50 nM
IC50 (S. mansoni TGR [6]): 50 nM

CC1=CC(=O)c2ccccc2C1=O [Menadione]
activity at 50 µM (S. mansoni TGR [2]): 18%

OCCSSCCO [HED, β-hydroxyethyl disulfide]
Apparent kcat, S. mansoni TGR (S. mansoni TGR [3]): 17.8 s⁻¹
Specific activity, S. mansoni TGR (S. mansoni TGR [3]): 9.9 µmol/min/mg
Specific activity of recombinant TGR with substrate (S. mansoni TGR [3]): 9.9 U/mg
Km (S. mansoni TGR [3]; [11]): 1870 µM
kcat (S. mansoni TGR [3]; [7]): 17.8 s⁻¹
Km (S. mansoni TGR [3]; [8]): 1870 µM
Vmax (S. mansoni TGR [3]; [8]): 21.4 ± 0.33 µM/min
Specific activity, Human TGR (Human TGR): 1.9 µmol/min/mg
Apparent kcat, Human TGR (Human TGR): 1.2 s⁻¹
Km (Human TGR): 45.2 µM

CC1=CC(=O)c2c(O)cccc2C1=O [Plumbagin]
activity at 50 µM (S. mansoni TGR [2]): 15%

CC(C)(C)OO [t-Butyl-OOH, tert-butyl hydroperoxide]
kcat (S. mansoni TGR [3]; [7]): 10.7 s⁻¹
Km (S. mansoni TGR [3]; [8]): 48600 µM
Vmax (S. mansoni TGR [3]; [8]): 12.8 ± 0.33 µM/min

O=C1C=CC(=O)c2c(O)ccc(O)c21 [Naphthazarin]
IC50 (Human TrxR): 650 nM

CN(C)c1ccc2nc3ccc(=[N+](C)C)cc-3sc2c1 [Methylene blue]
activity at 50 µM (S. mansoni TGR [2]): 100%

CN(C)CCC(=O)c1ccccc1 [Compound 3-DAP]
IC50 (S. mansoni TGR [4]; [9]): 500 nM
IC50 (S. mansoni TGR [5]; [10]): 7000 nM

O=C1C=CC(=O)c2ccccc21 [Compound M5]
activity (S. mansoni TGR [1]): 37%

O=[Se]([O-])[O-].[Na+].[Na+] [Na2SeO3, sodium selenite]
kcat (S. mansoni TGR [3]; [7]): 2.1 s⁻¹
Km (S. mansoni TGR [3]; [8]): 66.7 ± 6.9 µM
Vmax (S. mansoni TGR [3]; [8]): 2.54 ± 0.046 µM/min

B1: Trx: 12 kDa protein thioredoxin, substrate of TrxR and TGR enzymes (protein, UniProt P10599 2-105, looked up)
Thioredoxin: VKQIESKTAFQEALDAAGDKLVVVDFSATWCGPCKMIKPFFHSLSEKYSNVIFLEVDVDDCQDVASECEVKCMPTFQFFKKGQKVGEFSGANKEKLEATINELV
Apparent kcat, S. mansoni TGR (S. mansoni TGR [3]): 30 s⁻¹
Specific activity, S. mansoni TGR (S. mansoni TGR [3]): 2.2 µmol/min/mg
Specific activity of recombinant TGR with substrate (S. mansoni TGR [3]): 2.2 U/mg
Km (S. mansoni TGR [3]; [11]): 6.37 µM
Specific activity, Human TrxR1 (Human TrxR1): 5.9 µmol/min/mg
Apparent kcat, Human TrxR1 (Human TrxR1): 9.8 s⁻¹
Km (Human TrxR1): 4.73 µM
Specific activity, Human TGR (Human TGR): 4.2 µmol/min/mg
Apparent kcat, Human TGR (Human TGR): 5.7 s⁻¹
Km (Human TGR): 3 µM
